Experiment [1] deals with dorsal skin of HR rats (WBN/ILA-HT). In words: Rat skin elasticity improving (tightening) effect, cutometer. In kind it is in vivo. The conditions noted are these: for Ur/Uf / Ue (instantaneous elastic displacement) / Uf (final displacement) / Ur (instantaneous recovery displacement): 2% solution in 10% ethanol, two weeks; for Ur/Uf: cutometer; for Ue (instantaneous elastic displacement) / Uf (final displacement) / Ur (instantaneous recovery displacement): cutometer 100 hpa, 5 s suction, 2 s release; for skin elasticity / skin tightening effect: when applied, from Table 4 and Table 5. As for the experimental part:
Onto the entire dorsal skins of HR rats (WBN/ILA-HT, 7 weeks old), 2% solutions of Compounds 1 and 4 (solvent: 10% ethanol) were applied in the form of spray, respectively, once or twice a day, 7 to 8 times a week in total, in an amount of 0.7 mL each time. As a control, 10% ethanol solution was used. Two weeks later, the skin elasticity of the skin at a central dorsal part at a site slightly rightward of the median line of each HR rat was measured under Nembutal anesthesia by using a cutometer (“CUTOMETER SEM474”, Courage+Khazaka Electronic GmbH). The measurement was conducted by setting the suction pressure, suction time and release time at 100 hpa, 5 seconds and 2 seconds, and an instantaneous elastic displacement Ue, an instantaneous recovery displacement Ur and a final displacement Uf were recorded. Based on changes in the skin elasticity, skin tightening effect was determined. Ue is an index of elasticity, while Uf is an index of softness and malleability. Both of these values decrease on the face or the like upon aging, and also decrease when the skin is in a swollen state. Increases in these values, therefore, can be taken as an indication of a state that the skin is in a tightened state with its softness, melleability and elasticity having been increased further. Ur is also an index of elasticity, and decreases when the skin is in a saggy state or a swollen state. Similarly, an increase in this value serves as an indication of a state that the skin is in a tightened state with its elasticity and tightness having been increased further. Further, Ur/Uf is also an index of the elasticity of the skin, and like Ur, decreases when the skin becomes saggy or is swollen. Moreover, Ur/Uf is known to decrease upon aging irrespective of the face or body site, and is an important index of sagginess.

Experiment [2] deals with human skin fibroblasts (derived from a human fore skin). In words: Collagen gel tightening promoting ability (fibroblast-embedded collagen gel, dermis model). The conditions noted are these: Homo sapiens, Skin fibroblast, 48 hours, relative volume, control = 100%. In kind it is cell-based. As for the experimental part:
Measurement was conducted on the ability to promote the tightening of a fibroblast-embedded collagen gel as a dermis model. The collagen gel was prepared following the procedure reported in a publication [J. Cell Science, 102, 315 (1992) or J. Invest. Dermatol., 93, 792 (1989)]. Described specifically, a solution of HEPES (250 mM) in a 0.05 N sodium hydroxide solution, a 5-fold concentrate of DMEM (“GIBCO DMEM”, low glucose), FCS (2%, Fetal Calf Serum) and purified water were added under ice cooling to a collagen gel solution (product of Nitta Gelatin Inc., “type 1-A” (3.0 mg/mL, pH=3)), and finally, a suspension of human skin fibroblasts (derived from a human fore skin) was added. After the resulting mixture was thoroughly stirred to eliminate bubbles, 600 μL per well was added to 24-well dishes, followed by immediate warming at 37° C. in an incubator to effect gelation. Three to four hours later, 1 mL of serum-free DMEM medium was added to each of the wells, and the gels were separated at peripheries thereof from the corresponding dishes and were brought into a floating state. Eighteen hours after that, the medium was replaced with serum-free DMEM media which contained 100 to 10 μM of test substances, respectively, and incubation was conducted further for 48 hours.
Volume measurement of the gels was conducted by a weight measuring method similar to that reported in the publication [J. Cell Science, 102, 315 (1992)]. Described specifically, subsequent to immobilization with 10% formalin (4° C., 24 hours), the surface tension of water was reduced by the addition of Triton X100 (product of Wako Pure Chemical Industries) (1%), and the weights were measured.
Measurement results of relative volumes for the respective compounds as calculated supposing that the volume of the control was 100% are presented in Table 3.

In experiment [3] the test system is dorsal skin of HR rats (WBN/ILA-HT). In words: Rat skin elasticity improving (tightening) effect, cutometer. In kind it is in vivo. The conditions noted are these: 2% solution in 10% ethanol sprayed on dorsal skin, 0.7 mL, 7 to 8 times a week, two weeks.
Experiment [4] relates to human skin fibroblasts (derived from a human fore skin). Nature of the experiment: Collagen gel tightening promoting ability (fibroblast-embedded collagen gel, dermis model). In kind it is cell-based. The conditions noted are these: 48 hours, relative volume, control = 100%.

Counter-ions that a name gives are not always drawn.

Regarding `CCCCCCCCCCCCOCC(O)COS(=O)(=O)[O-].[Na+]` (stereo not shown) [Compound 1, 1-dodecylglycerol-3-sulfate sodium salt], in experiment [1], the Ur/Uf stood at 0.540, the “Ue (instantaneous elastic displacement)” value is given as 0.113, the “Uf (final displacement)” value was found to be 0.159 and the “Ur (instantaneous recovery displacement)” value is reported as 0.834. Also, the “skin elasticity / skin tightening effect” value in experiment [1] is “increased the skin elasticity and exhibited skin tightening effect”. In experiment [2], the activity at 10 µM was determined as 93% and the activity at 30 µM amounted to 85%. The “Skin thickness (mm)” value in experiment [3] was 0.820 mm.
As for `CC(C)CCCCCCCCCCCCCCCOCC(O)COS(=O)(=O)O` (stereo not shown) [Compound 3, 1-isostearylglycerol-3-sulfate sodium salt], in experiment [4], the activity at 3 µM was determined as 86%. For the same compound, in experiment [2], the activity at 10 µM turned out to be 74% and the activity at 30 µM was 95%.
On to `CCCCCCCCCCOCC(O)COP(=O)([O-])[O-].[Na+].[Na+]` (stereo not shown) [Compound 4, 1-decylglycerol-3-phosphate disodium salt], for which, in experiment [1], the Ur/Uf was determined as 0.401, the “Ue (instantaneous elastic displacement)” value was 0.225, the “Uf (final displacement)” value worked out at 0.275 and the “Ur (instantaneous recovery displacement)” value was found to be 0.109. Further, in experiment [1], the “skin elasticity / skin tightening effect” value is “increased the skin elasticity and exhibited skin tightening effect”. In addition, the activity at 15 µM in experiment [2] (15 μM, read-out: Average gel volume) turned out to be 96%. Also, the activity at 50 µM in experiment [2] (50 μM, read-out: Average gel volume) was determined as 88%. In addition, the “Skin thickness (mm)” value in experiment [3] came out at 0.725 mm.

(Values after patent publication US7968607B2, “Skin pore minimizers and skin elasticity improvers” (Koa Corporation, priority 2000, dated 2011).)
